Reference: the NIST ThermoML archive (doi:10.1021/je900598y)
± gives the expanded uncertainty stated by the source.

Legend:
[1] = excess molar enthalpy (molar enthalpy of mixing); xn = mol fraction of the nth substance listed; conditions: 298.15 K, Liquid, Calvet calorimetry
[2] = 298.15 K; 101.33 kPa; Liquid

CCCCCC(=O)OC(=O)CCCCC [caproic anhydride] + CCCCCCCCCCCCCCCC
[1]
Conditions	excess molar enthalpy [kJ/mol]
x1 = 0.0307	0.232 ± 0.0033
x1 = 0.0596	0.415 ± 0.0055
x1 = 0.0868	0.563 ± 0.0073
x1 = 0.1125	0.684 ± 0.0088
x1 = 0.1368	0.79 ± 0.01
x1 = 0.1597	0.876 ± 0.011
x1 = 0.1815	0.95 ± 0.012
x1 = 0.2022	1.01 ± 0.013
x1 = 0.2219	1.07 ± 0.013
x1 = 0.2406	1.11 ± 0.014
x1 = 0.2627	1.16 ± 0.015
x1 = 0.282	1.21 ± 0.015
x1 = 0.2889	1.23 ± 0.015
x1 = 0.2962	1.24 ± 0.016
x1 = 0.3038	1.25 ± 0.016
x1 = 0.3118	1.27 ± 0.016
x1 = 0.3202	1.28 ± 0.016
x1 = 0.3291	1.3 ± 0.016
x1 = 0.3373	1.31 ± 0.017
x1 = 0.346	1.32 ± 0.017
x1 = 0.355	1.33 ± 0.017
x1 = 0.3646	1.34 ± 0.017
x1 = 0.3747	1.35 ± 0.017
x1 = 0.3853	1.37 ± 0.017
x1 = 0.3954	1.37 ± 0.017
x1 = 0.4059	1.38 ± 0.017
x1 = 0.417	1.39 ± 0.018
x1 = 0.4262	1.4 ± 0.018
x1 = 0.4357	1.4 ± 0.018
x1 = 0.4457	1.4 ± 0.018
x1 = 0.4562	1.4 ± 0.018
x1 = 0.4671	1.41 ± 0.018
x1 = 0.4787	1.41 ± 0.018
x1 = 0.4907	1.41 ± 0.018
x1 = 0.5034	1.4 ± 0.018
x1 = 0.5144	1.4 ± 0.018
x1 = 0.5258	1.39 ± 0.018
x1 = 0.5377	1.39 ± 0.017
x1 = 0.5502	1.38 ± 0.017
x1 = 0.5633	1.37 ± 0.017
x1 = 0.5771	1.36 ± 0.017
x1 = 0.5893	1.35 ± 0.017
x1 = 0.602	1.33 ± 0.017
x1 = 0.6153	1.31 ± 0.017
x1 = 0.6292	1.3 ± 0.016
x1 = 0.6437	1.27 ± 0.016
x1 = 0.6589	1.25 ± 0.016
x1 = 0.6721	1.22 ± 0.015
x1 = 0.6857	1.2 ± 0.015
x1 = 0.6999	1.17 ± 0.015
x1 = 0.7147	1.13 ± 0.014
x1 = 0.7287	1.1 ± 0.014
x1 = 0.7433	1.06 ± 0.013
x1 = 0.7584	1.02 ± 0.013
x1 = 0.7742	0.975 ± 0.012
x1 = 0.7907	0.925 ± 0.012
x1 = 0.8078	0.871 ± 0.011
x1 = 0.8233	0.818 ± 0.01
x1 = 0.8393	0.758 ± 0.0097
x1 = 0.856	0.696 ± 0.0089
x1 = 0.8733	0.627 ± 0.0081
x1 = 0.8914	0.551 ± 0.0072
x1 = 0.9102	0.468 ± 0.0062
x1 = 0.9269	0.39 ± 0.0052
x1 = 0.9411	0.303 ± 0.0042
x1 = 0.962	0.206 ± 0.003
x1 = 0.9807	0.111 ± 0.0019

CCCCCC(=O)OC(=O)CCCCC [caproic anhydride]
Conditions	mass density [kg/m3]
[2]	923.96 ± 0.42

CCCCC(=O)OC(=O)CCCC [pentanoic anhydride] + CCCCCCCCCCCCCCCC
[1]
Conditions	excess molar enthalpy [kJ/mol]
x1 = 0.0353	0.29 ± 0.004
x1 = 0.0683	0.525 ± 0.0069
x1 = 0.099	0.706 ± 0.0091
x1 = 0.1278	0.859 ± 0.011
x1 = 0.1567	0.989 ± 0.013
x1 = 0.1837	1.1 ± 0.014
x1 = 0.209	1.19 ± 0.015
x1 = 0.2329	1.26 ± 0.016
x1 = 0.2553	1.33 ± 0.017
x1 = 0.277	1.38 ± 0.017
x1 = 0.2993	1.43 ± 0.018
x1 = 0.3202	1.47 ± 0.018
x1 = 0.3399	1.5 ± 0.019
x1 = 0.3619	1.54 ± 0.019
x1 = 0.3825	1.56 ± 0.019
x1 = 0.4019	1.58 ± 0.02
x1 = 0.42	1.59 ± 0.02
x1 = 0.4371	1.6 ± 0.02
x1 = 0.4532	1.6 ± 0.02
x1 = 0.4705	1.61 ± 0.02
x1 = 0.4866	1.61 ± 0.02
x1 = 0.5018	1.6 ± 0.02
x1 = 0.5161	1.6 ± 0.02
x1 = 0.5296	1.59 ± 0.02
x1 = 0.5424	1.59 ± 0.02
x1 = 0.5564	1.58 ± 0.02
x1 = 0.5695	1.57 ± 0.02
x1 = 0.5819	1.55 ± 0.019
x1 = 0.5935	1.54 ± 0.019
x1 = 0.6046	1.53 ± 0.019
x1 = 0.6168	1.52 ± 0.019
x1 = 0.6292	1.5 ± 0.019
x1 = 0.6421	1.48 ± 0.018
x1 = 0.6556	1.46 ± 0.018
x1 = 0.6696	1.43 ± 0.018
x1 = 0.6842	1.4 ± 0.018
x1 = 0.697	1.37 ± 0.017
x1 = 0.7103	1.34 ± 0.017
x1 = 0.7242	1.31 ± 0.017
x1 = 0.7386	1.27 ± 0.016
x1 = 0.7536	1.23 ± 0.015
x1 = 0.7692	1.18 ± 0.015
x1 = 0.7832	1.13 ± 0.014
x1 = 0.7977	1.08 ± 0.014
x1 = 0.8128	1.03 ± 0.013
x1 = 0.8285	0.966 ± 0.012
x1 = 0.8448	0.898 ± 0.011
x1 = 0.8591	0.833 ± 0.011
x1 = 0.8739	0.765 ± 0.0098
x1 = 0.8892	0.687 ± 0.0088
x1 = 0.905	0.605 ± 0.0078
x1 = 0.9214	0.515 ± 0.0067
x1 = 0.9361	0.429 ± 0.0057
x1 = 0.9513	0.334 ± 0.0045
x1 = 0.967	0.231 ± 0.0033
x1 = 0.9832	0.118 ± 0.0019

CCCCCC(=O)OC(=O)CCCCC [caproic anhydride] + CCCCCCCCCCCCCC
[1]
Conditions	excess molar enthalpy [kJ/mol]
x1 = 0.0274	0.201 ± 0.0029
x1 = 0.0533	0.361 ± 0.0049
x1 = 0.0779	0.492 ± 0.0065
x1 = 0.1012	0.602 ± 0.0078
x1 = 0.1234	0.695 ± 0.0089
x1 = 0.1445	0.773 ± 0.0099
x1 = 0.1681	0.851 ± 0.011
x1 = 0.1904	0.916 ± 0.012
x1 = 0.2115	0.972 ± 0.012
x1 = 0.2316	1.03 ± 0.013
x1 = 0.2372	1.05 ± 0.013
x1 = 0.2431	1.06 ± 0.013
x1 = 0.2493	1.07 ± 0.013
x1 = 0.2559	1.09 ± 0.014
x1 = 0.2628	1.1 ± 0.014
x1 = 0.2691	1.11 ± 0.014
x1 = 0.2757	1.12 ± 0.014
x1 = 0.2826	1.14 ± 0.014
x1 = 0.2899	1.15 ± 0.015
x1 = 0.2975	1.16 ± 0.015
x1 = 0.3056	1.18 ± 0.015
x1 = 0.3129	1.19 ± 0.015
x1 = 0.3204	1.2 ± 0.015
x1 = 0.3284	1.21 ± 0.015
x1 = 0.3368	1.22 ± 0.015
x1 = 0.3456	1.23 ± 0.015
x1 = 0.3548	1.24 ± 0.016
x1 = 0.363	1.25 ± 0.016
x1 = 0.3715	1.25 ± 0.016
x1 = 0.3805	1.26 ± 0.016
x1 = 0.3899	1.27 ± 0.016
x1 = 0.3998	1.27 ± 0.016
x1 = 0.4012	1.28 ± 0.016
x1 = 0.4103	1.29 ± 0.016
x1 = 0.4199	1.29 ± 0.016
x1 = 0.4299	1.29 ± 0.016
x1 = 0.4404	1.3 ± 0.016
x1 = 0.4514	1.3 ± 0.016
x1 = 0.463	1.3 ± 0.016
x1 = 0.4734	1.3 ± 0.016
x1 = 0.4843	1.3 ± 0.016
x1 = 0.4958	1.29 ± 0.016
x1 = 0.5077	1.29 ± 0.016
x1 = 0.5203	1.28 ± 0.016
x1 = 0.5335	1.28 ± 0.016
x1 = 0.5453	1.27 ± 0.016
x1 = 0.5575	1.26 ± 0.016
x1 = 0.5703	1.24 ± 0.016
x1 = 0.5838	1.23 ± 0.015
x1 = 0.5979	1.21 ± 0.015
x1 = 0.6126	1.2 ± 0.015
x1 = 0.6261	1.18 ± 0.015
x1 = 0.6401	1.16 ± 0.015
x1 = 0.6548	1.13 ± 0.014
x1 = 0.6702	1.11 ± 0.014
x1 = 0.6863	1.08 ± 0.014
x1 = 0.7032	1.04 ± 0.013
x1 = 0.7185	1.01 ± 0.013
x1 = 0.7345	0.973 ± 0.012
x1 = 0.7512	0.933 ± 0.012
x1 = 0.7686	0.889 ± 0.011
x1 = 0.7869	0.837 ± 0.011
x1 = 0.8038	0.786 ± 0.01
x1 = 0.8214	0.733 ± 0.0094
x1 = 0.8397	0.671 ± 0.0086
x1 = 0.8589	0.606 ± 0.0079
x1 = 0.879	0.531 ± 0.0069
x1 = 0.9001	0.451 ± 0.006
x1 = 0.9185	0.374 ± 0.005
x1 = 0.9376	0.293 ± 0.004
x1 = 0.9575	0.204 ± 0.003
x1 = 0.9783	0.107 ± 0.0018
